Measurements: patent publication US20050065140A1, “Serotonine reuptake inhibitor” (priority 2001, published 2005)

Columns and labels:
[1] = biological target: T1, [^3H]paroxetine binding (serotonin reuptake), cerebral cortex membrane preparation (Rattus norvegicus, UniProt P31652); test: Screening test using [^3H]paroxetine binding (Test Example 1); settings: [^3H]paroxetine 0.15 nM, test concentration not given
T1 construct: 790 μl of the cerebral cortex membrane preparation (150 μg/tube in terms of protein); from tissue; host or cells: rat cerebral cortex membrane preparation
Description: Screening Test Using [^3H]Paroxetine Binding
The membrane preparation was prepared according to the method^1a) of D'amato et al. In detail, after a male rat was decapitated, the whole brain was immediately removed and the cerebral cortex was dissected therefrom under ice-cooling. A buffer solution (50 mM Tris-HCl (pH=7.4), 120 mM NaCl, 5 mM KCl) was added to the cerebral cortex in an amount of 25 times the wet weight of the cerebral cortex, followed by homogenization in an ice bath by the use of a Teflon-glass homogenizer. The homogenate was centrifuged at 4° C. and 45,000×g for 10 minutes, and the resulting precipitate was dispersed in an ice-cooled buffer solution (50 mM Tris-HCl (pH=7.4), 120 mM NaCl, 5 mM KCl) by the use of Hiscotron™, followed by centrifugation at 4° C. and 45,000×g for 10 minutes. The resulting precipitate was re-suspended and the washing procedure was repeated. The membrane preparation thus obtained was suspended in the same buffer solution as described above, and then subjected to cryopreservation at −80° C.
[^3H]paroxetine binding was measured according to the method^1b) of Habert E et al. In detail, 200 μl of a dilution (final concentration: 0.15 nM) of [^3H]paroxetine with 50 mM Tris-HCl (pH=7.4) buffer containing 120 mM NaCl and 5 mM KCl, 790 μl of the cerebral cortex membrane preparation (150 μg/tube in terms of protein), 10 μl of a solution of a test drug in dimethyl sulfoxide and 1 ml of the above-mentioned buffer solution were mixed to prepare a liquid having a total volume of 2 ml. After this liquid was allowed to react at room temperature for 60 minutes, it was immediately filtered by suction at a low pressure through glass fiber filter. The glass fiber filter was washed 4 times with 4 ml of the same buffer solution as above and then transferred to a glass vial containing 4 ml of ACS-II (Amersham), and the radioactivity remaining on the filter was measured with a liquid scintillation counter.
Non-specific binding of [^3H]paroxetine was defined as the amount of [^3H]paroxetine bound in the presence of 100 μM 5-HT.
Rate of binding inhibition was calculated by the following equation:
Rate of binding inhibition (%)=100−100×{[amount of [^3H]paroxetine bound in the presence of test substance]−[amount of [^3H]paroxetine bound in the presence of 100 μM 5-HT]/[amount of [^3H]paroxetine bound in the absence of test substance]−[amount of [^3H]paroxetine bound in the presence of 100 μM 5-HT]}

human 5-HT1A receptor = biological target: T2, human 5-HT1A receptor (Homo sapiens, UniProt P08908); test: 5-HT1A receptor stimulation test, [^35S]GTPγS binding (Test Example 3); assay type: biochemical; settings: 10^-5 M test substance; membranes of human 5-HT1A/CHO cells; increase in [^35S]GTPγS binding caused by 10 μM 5-HT taken as 100%
T2 construct: expressed in transfected cells; host or cells: CHO cells (human 5-HT1A/CHO), membrane preparation
T2 sequence (P08908 1-422): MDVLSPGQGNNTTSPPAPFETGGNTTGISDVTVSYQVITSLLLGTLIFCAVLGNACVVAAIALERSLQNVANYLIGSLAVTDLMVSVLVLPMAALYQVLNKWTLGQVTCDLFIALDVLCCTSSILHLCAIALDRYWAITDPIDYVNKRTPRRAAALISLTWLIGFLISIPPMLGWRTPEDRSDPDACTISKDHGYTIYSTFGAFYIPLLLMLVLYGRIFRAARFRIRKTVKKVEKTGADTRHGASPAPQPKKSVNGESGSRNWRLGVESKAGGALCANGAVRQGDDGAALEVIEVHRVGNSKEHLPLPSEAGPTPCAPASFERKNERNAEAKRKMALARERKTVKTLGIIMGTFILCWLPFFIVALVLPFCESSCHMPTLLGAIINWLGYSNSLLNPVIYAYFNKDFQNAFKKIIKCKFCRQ
Description: 5-HT1A Receptor Stimulation Test
CHO cells expressing human 5-HT1A receptor (human 5-HT1A/CHO) were used in the experiment. The cells were cultured in F12 containing 10% FCS, 500 μg/ml Geneticin and 100 U/ml penicillin-100 μg/ml streptomycin (all available from GIBCO) in a 5% CO2 incubator, and a membrane preparation was prepared according to the method^3)of A. Newman et al. In detail, cells scraped and collected by the use of buffer solution A (20 mM HEPES, 5 mM MgSO4) were homogenized in a Teflon™ homogenizer, followed by centrifugation (50,000×g, 30 min, 4° C.). The precipitate was re-suspended in a suitable volume of buffer solution A and stored at −80° C. until use. The amount of protein in the membrane preparation was determined with Dye Reagent Concentrate (BIO-RAD) by using Albumin Bovine (SIGMA) as a standard substance.
Binding of [^35S]GTPγS to human 5-HT1A receptors was measured by the use of the above-mentioned membrane preparation according to the method^3)of A. Newman et al. In detail, 0.05 nM of [^35S]GTPγS (E.I. du Pont de Nemours & Co. NEN) and a definite amount (about 50 μg/tube) of the membrane preparation were added to buffer solution B (20 mM HEPES, 3 mM MgSO4, 3 μM GDP, 1 mM DTT) containing 10^−5 M of each test substance, and the resulting liquid for reaction having a total volume of 1 ml was incubated at 22° C. for 20 minutes. After completion of the reaction, the reaction mixture was diluted with 5 ml of ice-cooled buffer solution B, and the dilution was immediately filtered by suction through glass fiber filter (Whatman, GF/B) to terminate the reaction. The glass fiber filter was washed twice with the same buffer solution as above and placed in a vial, and 4 ml of ACS-II was added thereto. The radioactivity of [^35S]GTPγS on the filter was measured with a liquid scintillation counter. The amount of [^35S]GTPγS specifically bound was calculated from the amount of [^35S]GTPγS non-specifically bound in the presence of 10 μM of GTPγS (Sigma). The 5-HT1A receptor stimulating activity of each test substance was expressed in terms of the rate of increase in [^35S]GTPγS binding by taking an increase in [^35S]GTPγS binding caused by 10 μM of 5-HT, as 100%.

T1 sequence (P31652 whole entry): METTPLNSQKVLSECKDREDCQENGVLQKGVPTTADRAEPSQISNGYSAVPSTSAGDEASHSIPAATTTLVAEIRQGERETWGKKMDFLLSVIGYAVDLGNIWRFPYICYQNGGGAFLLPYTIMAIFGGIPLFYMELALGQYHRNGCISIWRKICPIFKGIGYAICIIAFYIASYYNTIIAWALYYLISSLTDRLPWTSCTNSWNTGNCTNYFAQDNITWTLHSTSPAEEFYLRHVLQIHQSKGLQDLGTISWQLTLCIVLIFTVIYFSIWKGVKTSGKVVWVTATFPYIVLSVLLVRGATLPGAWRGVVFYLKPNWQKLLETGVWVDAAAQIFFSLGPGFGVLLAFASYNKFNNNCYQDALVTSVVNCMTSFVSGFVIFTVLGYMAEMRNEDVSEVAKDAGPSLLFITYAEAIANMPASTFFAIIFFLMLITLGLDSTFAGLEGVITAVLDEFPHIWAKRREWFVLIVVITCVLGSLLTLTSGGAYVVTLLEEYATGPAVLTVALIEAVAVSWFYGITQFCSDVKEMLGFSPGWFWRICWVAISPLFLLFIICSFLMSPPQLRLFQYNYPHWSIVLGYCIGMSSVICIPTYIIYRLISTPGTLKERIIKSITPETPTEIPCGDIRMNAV

Compound | Rate of inhibition of [^3H]paroxetine binding (%) [1] [%] | 5-HT1A receptor stimulating activity (%) (human 5-HT1A receptor) | melting point [°C]
COc1ccc(Br)c(CC2CCN(CC3CNc4ccccc4C3)CC2)c1.Cl.Cl (centres unmarked) [Example 70, 3-((4-(2-Bromo-5-methoxybenzyl)piperidin-1-yl)methyl)-1,2,3,4-tetrahydroquinoline Dihydrochloride] | 84 | 7 | 
COc1ccc(Br)c(CC2CCN(CC[C@H]3CC[C@@H](CCO)CC3)CC2)c1.Cl [Example 64, cis-2-(4-(2-(4-(2-Bromo-5-methoxybenzyl)-piperidin-1-yl)ethyl)cyclohexyl)ethanol Hydrochloride] | 96 | 19 | 273
CC(C)Oc1ccc(Br)c(CC2CCN(CC3CCc4ccccc4N3)CC2)c1.Cl.Cl (centres unmarked) [Example 65, 2-((4-(2-Bromo-5-isopropoxybenzyl)piperidin-1-yl)methyl)-1,2,3,4-tetrahydroquinoline Dihydrochloride] | 97 | 64 | 
CO[C@H]1CC[C@H](CCN2CCC(Cc3cc(OC(C)C)ccc3Br)CC2)CC1.Cl [Example 44, trans-4-(2-Bromo-5-isopropoxybenzyl)-1-(2-(4-methoxycyclohexyl)ethyl)piperidine Hydrochloride] | 99 | 51 | 196
CCN(CCOC)[C@H]1CC[C@H](CCN2CCC(Cc3cc(OC)ccc3Br)CC2)CC1.Cl.Cl [Example 58, trans-N-(4-(2-(4-(2-bromo-5-methoxybenzyl)-piperidin-1-yl)ethyl)cyclohexyl)-N-ethyl-N-(2-methoxyethyl)amine Dihydrochloride] | 100 | 30 | 78
COc1ccc(Br)c(CC2CCN(CC[C@H]3CC[C@H](NS(=O)(=O)N(C)C)CC3)CC2)c1.Cl [Example 47, trans-N′-(4-(2-(4-(2-bromo-5-methoxybenzyl)-piperidin-1-yl)ethyl)cyclohexyl)-N,N-dimethylsulfamide hydrochloride] | 100 | 37 | 214
CCN[C@H]1CC[C@H](CCN2CCC(Cc3cc(OC)ccc3Br)CC2)CC1.Cl.Cl [Example 38, trans-N-(4-(2-(4-(2-bromo-5-methoxybenzyl)-piperidin-1-yl)ethyl)cyclohexyl)-N-ethylamine Dihydrochloride] | 100 | 48 | 
CCN([C@H]1CC[C@H](CCCN2CCC(Cc3cc(OC(C)C)ccc3Br)CC2)CC1)S(C)(=O)=O.Cl [Example 46, trans-N-(4-(3-(4-(2-bromo-5-isopropoxy-benzyl)piperidin-1-yl)propyl)cyclohexyl)-N-ethylmethanesulfonamide Hydrochloride] | 100 | 62 | 
CCN(CC)[C@H]1CC[C@@H](CCCN2CCC(Cc3cc(OC)ccc3Br)CC2)CC1.Cl.Cl [Example 54, cis-N-(4-(3-(4-(2-bromo-5-methoxybenzyl)-piperidin-1-yl)propyl)cyclohexyl)-N,N-diethylamine Dihydrochloride] | 80 | 16 | 
COc1ccc(Br)c(CC2CCN(CC[C@H]3CC[C@H](NC(=O)C(F)(F)F)CC3)CC2)c1.Cl [Example 48, trans-N-(4-(2-(4-(2-bromo-5-methoxybenzyl)-piperidin-1-yl)ethyl)cyclohexyl)-2,2,2-trifluoro-acetamide Hydrochloride] | 99 | 33 | 230
Cl.Cl.Clc1ccc(Br)c(CC2CCN(CC3CCc4ccccc4N3)CC2)c1 (centres unmarked) [Example 67, 2-((4-(2-Bromo-5-chlorobenzyl)piperidin-1-yl)methyl)-1,2,3,4-tetrahydroquinoline Dihydrochloride] | 81 | 74 | 227
COc1ccc(Br)c(CC2CCN(CCC3CCN(CCO)CC3)CC2)c1.Cl.Cl [Example 6, 2-(4-(2-(4-(2-Bromo-5-methoxybenzyl)-1-piperidinyl)ethyl)-1-piperidinyl)ethanol Dihydrochloride] | 87 | 53 | 
COc1ccc(Br)c(CC2CCN(CC3CCc4ccccc4N3)CC2)c1.Cl.Cl (centres unmarked) [Example 69, 2-((4-(2-Bromo-5-methoxybenzyl)piperidin-1-yl)methyl)-1,2,3,4-tetrahydroquinoline Dihydrochloride] | 95 | 63 | 
